Experimental data from patent US6630310B1, “Assay for binding between carbohydrate and glycolipid” (Biopolymer Engineering Pharmaceutical, Inc., priority 1996, dated 2003).
“Also recorded” adds a separate entry of the source.

What was measured:
[1] = test system: human leukocyte membranes; experiment: ^3H-PGG-Glucan binding to pretreated human leukocyte membranes; details: for effect of detergent pretreatment of membranes on specific binding (in words): membranes pretreated 5 minutes on ice (CHAPS 0.25%) (FIG. 9)
Description: Human leukocyte membranes were incubated in HBSS with or without 0.25% CHAPS for 5 minutes on ice, followed by centrifugation at 180,000×g, 4° C. for 45 minutes. Pellets were used in a binding assay with underivatized, aqueous soluble β(1-3)-glucan or dextran (avg. MW 71,000, Sigma Chemical Co., MO) as indicated at 1 mg/ml final concentration.
Human leukocyte membranes (500 μg protein) were incubated with sodium periodate at concentrations indicated in FIG. 12 (10 and 100 mM) for 30 minutes at room temperature, then centrifuged at 12,000×g for 10 minutes, rinsed and used in a binding assay (non-oil/sucrose; see FIG. 12). Protein-depleted membranes (derived from 1.87 mg human leukocyte membrane protein) were incubated in 0.1 M sodium periodate and treated as described above (FIG. 13).
An alternative procedure to that using the oil/sucrose gradient involved centrifuging 100 μl aliquots of the binding assay in microfuge tubes at 12,000×g, for five minutes, followed by rinsing the resultant pellet with HBSS. Pellets were then dissolved in SOLVABLE™ and radioactively determined as above.

[2] = Specific binding of ^3H-PGG-Glucan to sphingolipids in the 96-well plate assay; design: ^3H-PGG-Glucan bound (specific binding): unit not given here; details: for specific binding to ^3H-underivatized, aqueous soluble β(1-3)-glucan (in words): immobilized on a polystyrene 96-well plate; for ^3H-PGG-Glucan bound (specific binding): LacCer of defined fatty acid and long chain base, 96-well plate; for 3H-PGG-Glucan Bound (specific binding): sphingolipid immobilized in 96-well plate, 37° C.
Description: Lactosyl ceramide or the sample to be measured was suspended in ethanol. Aliquots as specified were added in triplicate to the wells of a 96-well plate and air dried. The following components were premixed, then 100 μL was added to each well: saline (10 μL) or unlabelled, underivatized, aqueous soluble β(1-3)-glucan (10 μL of a 10 mg/ml stock), ^3H-underivatized, aqueous soluble β(1-3) glucan (10 μL of a 10 μg/ml stock), and HBSS (80 μL). Plates were incubated at 37° C. for 1.5 to 2 hours, then supernatants were removed from each well and discarded. Wells were rinsed with HBSS (200 μL) and SOLVABLE™ (100 μL) was added. The plate was incubated at 60° C. for 5 minutes, then supernatants were removed and counted.

[3] = test system: receptor for underivatized, aqueous soluble β(1-3)-glucan on human leukocyte membranes; experiment: Competition of ^3H-PGG-Glucan binding to human leukocyte membranes (oil/sucrose binding assay)
Description: Aminated glucan was prepared by reductive amination of curdlan and provided by Dr. Rolph Seljelid (University of Tromsφ, Tromsφ, Norway).
At the end of the incubation, 100 μl aliquots of reaction mixture were layered on top of a double layer density gradient consisting of 100 μl dibutyl phthalate (lower layer) and 100 μl 8% sucrose in PBS (upper layer) in 400 μl centrifuge tubes (Brinkman). The tubes were spun at 15,000×g for 4-5 minutes and the tips containing the membrane pellets were removed, incubated in 300 μl SOLVABLE™ (New England Nuclear, Boston, Mass.) overnight at 50° C. to dissolve the pellet, and then radioactivity determined by liquid scintillation counting. […] Alternatively, membranes were centrifuged directly in their incubation tubes at 15,000×g for 4-5 minutes at 37° C., the pellet washed with HBSS, then pellets solubilized and radioactivity determined by liquid scintillation counting.

[4] = Competition of ^3H-PGG-Glucan binding to lactosyl ceramide in 96-well plate assay (FIGS. 14, 15); design: species or system bovine; details: FIGS. 14 and 15
Excerpt: FIG. 14 is a graph of the comparison of underivatized, aqueous soluble β(1-3)-glucan and single helix competition of ^3H-underivatized, aqueous soluble β(1-3)-glucan binding in three assay formats. Underivatized, aqueous soluble β(1-3)-glucan or single helix glucan was used at designated concentrations to compete for ^3H-underivatized, aqueous soluble β(1-3)-glucan binding to lactosyl ceramide (LacCer) in a 96-well plate (triangles), or to lactosyl ceramide in reconstituted membranes (squares), or to human leukocyte membranes (circles). Open symbols represent underivatized, aqueous soluble β(1-3) glucan, and closed symbols represent single helix. Maximum competition was assigned at the highest concentration of underivatized, aqueous soluble β(1-3)-glucan used as competitor in each type of assay.
FIG. 15 is a graphic illustration of data showing that underivatized, aqueous soluble β(1-3) glucan and high molecular weight underivatized, aqueous soluble β(1-3) glucan (Network) compete more effectively for ^3H-underivatized, aqueous soluble β(1-3)-glucan binding to lactosyl ceramide in a 96-well plate assay than do single helix or laminarin. […]
Lactosyl ceramide or the sample to be measured was suspended in ethanol. […] The plate was incubated at 60° C. for 5 minutes, then supernatants were removed and counted.

[5] = addition at 0.1 mg/ml, ^3H-PGG-Glucan binding to human leukocyte membranes

## C[C@H](CCC(=O)NCCC[N+](C)(C)CCCS(=O)(=O)[O-])[C@H]1CC[C@H]2[C@@H]3[C@H](O)C[C@@H]4C[C@H](O)CC[C@]4(C)[C@H]3C[C@H](O)[C@]12C [CHAPS]
[1]
  effect of detergent pretreatment of membranes on specific binding (in words): enhancement of specific binding

## galactosyl ceramides
[2]
  specific binding to ^3H-underivatized, aqueous soluble β(1-3)-glucan (in words): significant specific binding

## CCCCCCCCO[C@@H]1O[C@H](CO)[C@@H](O)[C@H](O)[C@H]1O [octylglucoside]
[1]
  effect of detergent pretreatment of membranes on specific binding (in words): enhancement of specific binding

## CCCCCCCCCCCCCCCC(=O)NC(CO[C@@H]1O[C@H](CO)[C@@H](O[C@@H]2O[C@H](CO)[C@H](O)[C@H](O)[C@H]2O)[C@H](O)[C@H]1O)C(O)CCCCCCCCCCCCCCC (mixture of isomers) [N-Palmitoyl-DL-dihydrolacto-cerebroside]
[2]
  ^3H-PGG-Glucan bound (specific binding): 0.00

## Globoside
[2]
  3H-PGG-Glucan Bound (specific binding): 0.00 ± 0.01 ng/μg sphingolipid

## Mannan
[3]; addition at 1 mg/ml
  % Control Binding: 88%

## Sulfatides
[2]
  3H-PGG-Glucan Bound (specific binding): 0.00 ± 0.01 ng/μg sphingolipid

## O=C(O)CN(CCOCCOCCN(CC(=O)O)CC(=O)O)CC(=O)O [EGTA]
[3]; addition at 5 mM
  % Control Binding: 87%

## Lipopolysaccharide
[3]; [5]
  % Control Binding: 89%

## CCCCCCCCCCCCCC=CC(O)C(COC1OC(CO)C(OC2OC(CO)C(O)C(O)C2O)C(O)C1O)NC(=O)CCCCCCCCCCCCCCCCCCCCC (stereo not drawn) [LacCer (HLM) C22:0]
[2]
  ^3H-PGG-Glucan bound (specific binding): 3.57

## CCCCCCCCCCCCC/C=C/[C@@H](O)[C@H](CO[C@@H]1O[C@H](CO)[C@@H](O[C@@H]2O[C@H](CO)[C@H](O)[C@H](O)[C@H]2O)[C@H](O)[C@H]1O)NC(=O)CCCCCCCCCCCCCCCCCCCCCCC [LacCer (HLM) C24:0]
[2]
  ^3H-PGG-Glucan bound (specific binding): 3.14

## Dextran
[3]; addition at 1 mg/ml
  % Control Binding: 88%

## CCCCCCCCCCCCCCCCCCCCCCCC(=O)NC(CO[C@@H]1O[C@H](CO)[C@@H](O[C@@H]2O[C@H](CO)[C@H](O)[C@H](O)[C@H]2O)[C@H](O)[C@H]1O)C(O)CCCCCCCCCCCCCCC (mixture of isomers) [N-Lignoceroyl-DL-dihydrolacto-cerebroside]
[2]
  ^3H-PGG-Glucan bound (specific binding): 0.00

## CCCCCCCCCCCCC/C=C/[C@@H](O)[C@H](CO[C@@H]1O[C@H](CO)[C@@H](O[C@@H]2O[C@H](CO)[C@H](O)[C@H](O)[C@H]2O)[C@H](O)[C@H]1O)NC(=O)CCCCCCCCCCCCCCCCC [LacCer (HLM) C18:0]
[2]
  ^3H-PGG-Glucan bound (specific binding): 1.93

## [Na+].[O-][I+3]([O-])([O-])[O-] [sodium periodate]
[1]; 10 and 100 mM, 30 minutes at room temperature (FIGS. 12, 13)
  effect of sodium periodate treatment of membranes on binding activity (in words): decreased

## lactosyl ceramide
[2]
  specific binding to ^3H-underivatized, aqueous soluble β(1-3)-glucan (in words): significant specific binding

## Laminarin
[3]
  inhibition of radioactively labeled underivatized, aqueous soluble β(1-3)-glucan binding to human leukocyte membranes (in words): do not inhibit; also recorded: not inhibited
[3]; addition at 1 mg/ml
  % Control Binding: 83%
[4]
  competition for ^3H-underivatized, aqueous soluble β(1-3)-glucan binding to LacCer in the 96-well plate assay (in words): does not compete efficiently

## globotriaosyl ceramide [GlobotriaosylCer]
[2]
  specific binding to ^3H-underivatized, aqueous soluble β(1-3)-glucan (in words): significant specific binding
  3H-PGG-Glucan Bound (specific binding): 0.84 ± 0.13 ng/μg sphingolipid

## CCCCCCCCCCCCCCCCCC(=O)NC(CO[C@@H]1O[C@H](CO)[C@@H](O[C@@H]2O[C@H](CO)[C@H](O)[C@H](O)[C@H]2O)[C@H](O)[C@H]1O)C(O)CCCCCCCCCCCCCCC (mixture of isomers) [N-Stearoyl-DL-dihydrolacto-cerebroside]
[2]
  ^3H-PGG-Glucan bound (specific binding): 0.00

## CCCCCCCCCCCCC/C=C/[C@@H](O)[C@@H](N)CO [Sphingosine]
[2]
  3H-PGG-Glucan Bound (specific binding): 0.02 ± 0.00 ng/μg sphingolipid

## Glycogen
[3]; [5]
  % Control Binding: 134%

## CCCCCCCCCCCCCC=CC(O)C(COC1OC(CO)C(OC2OC(CO)C(O)C(O)C2O)C(O)C1O)NC(=O)CCCCCCCCCCCCCCC (stereo not drawn) [LacCer (HLM) C16:0]
[2]
  ^3H-PGG-Glucan bound (specific binding): 3.31

## Ceramides
[2]
  3H-PGG-Glucan Bound (specific binding): 0.02 ± 0.01 ng/μg sphingolipid

## OC[C@H]1O[C@@H](O[C@@H]2[C@@H](O)[C@H](O[C@@H]3[C@@H](O)[C@H](O[C@@H]4[C@@H](O)[C@H](O[C@@H]5[C@@H](O)[C@H](O[C@@H]6[C@@H](O)[C@H](O[C@@H]7[C@@H](O)[C@H](O)O[C@H](CO)[C@H]7O)O[C@H](CO)[C@H]6O)O[C@H](CO)[C@H]5O)O[C@H](CO)[C@H]4O)O[C@H](CO)[C@H]3O)O[C@H](CO)[C@H]2O)[C@H](O)[C@@H](O)[C@@H]1O [laminariheptose]
[3]
  inhibition of radioactively labeled underivatized, aqueous soluble β(1-3)-glucan binding to human leukocyte membranes (in words): no effect
